Patent US8809627B2, “Plant isoflavone and isoflavanone O-methyltransferase genes” (The Samuel Roberts Noble Foundation, Inc., priority 2006, dated 2014)

How the values were obtained:
[1] = tested on: MtIOMT3; assay: OMT assays with purified recombinant MtIOMT3 (relative activity; HPLC/MS of products); format: biochemical, Medicago truncatula; settings: 50 μM S-adenosyl methionine, 100 μM acceptor substrate; most converted substrate = 100%
Excerpt: (§1) Cloning of MtIOMT5 (corresponding to TC 100926, TIGR MtGI v.8) was as described previously (Liu et al., 2005). To obtain a full-length cDNA for MtIOMT2, specific primers designed based upon the M. truncatula genomic sequence were used to amplify the MtIOMT2 coding sequence from M. truncatula root cDNA. The amplified product was cloned into the pGEM®-T easy vector (Promega, Madison Wis.) and sequenced to confirm its identity. MtIOMTs were cloned into the pET28a vector (EMD Biosciences, Inc., San Diego, Calif.) using PCR-based amplification with primers designed to introduce EcoRI and XhoI restriction sites; BamHI and XhoI sites were used for cloning MtIOMT6 due to the presence of an internal EcoRI site in this particular cDNA. Because the EST for MtIOMT8 was missing a start codon, the primer designed to clone MtIOMT8 into pET28a contained an additional 2-nucleotide insertion to generate an ATG start site. All MtIOMTs were expressed as translational fusions to an N-terminal His-tag. Expression of MtIOMTs in E. coli BL21(DE3) and purification by Ni^2+-NTA chromatography were as described (Zubieta et al., 2001). Proteins were dialyzed against 20 mM Tris pH 8.0, 100 mM NaCl, 10% (v/v) glycerol, and 14 mM β-mercaptoethanol. Protein concentration was determined by Bradford assay using BSA as a standard (Bradford, 1976).
(§2) Reactions (200 μl) were performed in 0.1 M potassium phosphate, pH 7.4, 10% (w/v) sucrose, 14 mM β-mercaptoethanol with 10 μM protein, 0.5 mM S-adenosyl-L-methionine, and 80 μM phenolic substrates. All substrates were purchased from Indofine (Hillsborough, N.J.) except 6,7-dihydroxy-4′-methoxyisoflavone, dihydrodaidzein, and vestitol, which were purchased from Apin (Oxfordshire, UK). […] OMT assays were incubated at 30° C. for 2 h and extracted with ethyl acetate. Ethyl acetate extracts were dried under N2 and the resultant material was resuspended in 50-100 μl of methanol. Samples were analyzed on an Agilent 1100 HPLC, equipped with a quaternary pump (model #G1311A), a degasser (model #G1322A), an autosampler (model #G1313A), and a diode array detector (model #G1315A). Samples of 20 μl were applied to an ODS2 reverse-phase column (5 μm particle size, 4.6×250 mm) and eluted in 1% (v/v) phosphoric acid with an increasing gradient of acetonitrile (0-5 min, 25%; 5-35 min, 25-50%; 35-39 min, 50-100%) at a flow rate of 1 ml/min. To resolve the 4′-O-methylated and 7-O-methylated products of genistein, samples were applied to a Phenomenex SYNERGI Polar-RP 80 Å column (4 μm particle size, 4.6×250 mm) and eluted in water with an increasing gradient of acetonitrile (0-5 min, 20%; 5-17 min, 20-38%; 17-33 min, 38%; 33-45 min, 38-56%; 45-46 min, 56-100%) at a flow rate of 1 ml/min. Chiral chromatography was performed as described (Liu et al., 2005).
(§3) For determination of specific activities, reactions (100 μl) were performed in 0.1 M potassium phosphate, pH 7.4, 10% (w/v) sucrose, 14 mM β-mercaptoethanol with 0.2-μg protein, 50 μM S-adenosyl-L-methionine (0.025 μCi ^14C-SAM per reaction), and 100 μM substrate. Reactions were incubated at 30° C. for 15-25 min and stopped by addition of 4 μl of 1N HCl. Products were extracted into 500 μl of ethyl acetate and 400 μl was used for liquid scintillation counting.
(§4) An HP 1100 series II LC system (Hewlett-Packard, Palo Alto, Calif.) with a photodiode array detector was coupled to a Bruker Esquire ion-trap mass spectrometer (ITMS) equipped with an electrospray ionization source. A reverse phase, C18, 5 μm, 4.6×250 mm column (J. T. Baker, Phillipsburg, N.J.) was used for separations. The mobile phase consisted of 0.1% (v/v) acetic acid using linear gradients of 5-90% acetonitrile (v/v) in 70 min. The flow rate was 0.8 ml/min, and the temperature of the column was kept at 28° C. Both positive- and negative-ion mass spectra were acquired. […]

[2] = tested on: MtIOMT6; assay: OMT assays with purified recombinant MtIOMT6 (relative activity; HPLC/MS of products); format: biochemical, Medicago truncatula; settings: 50 μM S-adenosyl methionine, 100 μM acceptor substrate; most converted substrate = 100%
Excerpt: as §1, §2, §3, §4

[3] = tested on: MtIOMT7; assay: OMT assays with purified recombinant MtIOMT7 (relative activity; HPLC/MS of products); format: biochemical, Medicago truncatula; settings: for Relative activity, MtIOMT7: 50 μM S-adenosyl methionine, 100 μM acceptor substrate, most converted substrate = 100%
Excerpt: as §1, §2, §3
An HP 1100 series II LC system (Hewlett-Packard, Palo Alto, Calif.) with a photodiode array detector was coupled to a Bruker Esquire ion-trap mass spectrometer (ITMS) equipped with an electrospray ionization source. A reverse phase, C18, 5 μm, 4.6×250 mm column (J. T. Baker, Phillipsburg, N.J.) was used for separations. The mobile phase consisted of 0.1% (v/v) acetic acid using linear gradients of 5-90% acetonitrile (v/v) in 70 min. The flow rate was 0.8 ml/min, and the temperature of the column was kept at 28° C. Both positive- and negative-ion mass spectra were acquired.

[4] = molecular target: T1, MtIOMT5 (Medicago truncatula, UniProt Q29U70); assay: OMT assays with purified recombinant MtIOMT5 (relative activity; HPLC/MS of products); format: biochemical; settings: for Relative activity, MtIOMT5: 50 μM S-adenosyl methionine, 100 μM acceptor substrate, most converted substrate = 100%; for Position of methylation / reaction products, MtIOMT5: HPLC against standards, tandem MS
T1 construct: His-tag (N); made in house; host or cells: E. coli BL21(DE3)
T1 sequence (Q29U70 1-364): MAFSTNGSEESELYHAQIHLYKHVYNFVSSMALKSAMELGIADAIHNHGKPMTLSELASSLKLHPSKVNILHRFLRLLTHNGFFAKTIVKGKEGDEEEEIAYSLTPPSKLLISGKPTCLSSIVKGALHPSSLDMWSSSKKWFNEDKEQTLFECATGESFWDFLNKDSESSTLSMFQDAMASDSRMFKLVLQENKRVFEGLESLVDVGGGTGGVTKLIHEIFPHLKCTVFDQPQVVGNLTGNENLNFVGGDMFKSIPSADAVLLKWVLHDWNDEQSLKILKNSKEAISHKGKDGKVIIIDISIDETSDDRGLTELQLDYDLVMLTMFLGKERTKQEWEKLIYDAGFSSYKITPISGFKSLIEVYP
Excerpt: as §1, §2, §3, §4

[5] = tested on: MtIOMT2; assay: OMT assays with purified recombinant MtIOMT2 (relative activity; HPLC/MS of products); format: biochemical, Medicago truncatula; settings: for Relative activity, MtIOMT2: 50 μM S-adenosyl methionine, 100 μM acceptor substrate, most converted substrate (daidzein) = 100%
Excerpt: as §1, §2, §3, §4

Structure (SMILES) | Relative activity, MtIOMT3 [1] | Relative activity, MtIOMT6 [2] | Relative activity, MtIOMT7 [3] | Relative activity, MtIOMT5 [4] | Relative activity, MtIOMT2 [5] | Amount of substrate methylated after 2 h ([3]; MtIOMT7, 2 h) | Position of methylation / reaction products, MtIOMT5 [4] | Efficiency of methylation by MtIOMT2 (in words) [5]
O=c1cc(-c2ccc(O)cc2)oc2cc(O)cc(O)c12 [Apigenin] | 0% | 0% | 0% | 0% | 0% | – | – | –
O=c1c(-c2ccc(O)cc2)coc2cc(O)ccc12 [Daidzein] | ≦1% | 0% | 0% | 0% | 100% | – | – | –
O=C1C[C@@H](c2ccc(O)cc2)Oc2cc(O)cc(O)c21 [Naringenin] | 0% | 0% | 100% | ≦1% | ≦1% | Almost all | methylated on the 4′-positions | low efficiency
O=c1c(-c2ccc(O)cc2)coc2cc(O)cc(O)c12 [Genistein] | 73.7% | 0% | 0% | 0% | 61% | – | – | –
O=c1c(-c2ccc(O)cc2)coc2cc(O)c(O)cc12 [6,7,4′-trihydroxyisoflavone] | 100% | 0% | 0% | 0% | 35.3% | – | – | –
COc1ccc(-c2coc3cc(O)c(O)cc3c2=O)cc1 [6,7-dihydroxy,4′-methoxyisoflavone] | 0% | 0% | 0% | 0% | 0% | – | – | –
O=c1c(-c2ccc(O)c(O)c2)coc2cc(O)ccc12 [7,3′,4′-trihydroxyisoflavone] | 52.9% | 0% | ≦1% | 0% | 43.1% | – | – | –
O=c1oc2cc(O)ccc2c2oc3cc(O)ccc3c12 [Coumestrol] | 0% | 0% | 1.5% | 0% | ≦1% | – | – | low efficiency
COc1cc2c(=O)c(-c3ccc(O)cc3)coc2cc1O [Glycitein] | 51.6% | 0% | ≦1% | 0% | 38.9% | – | – | –
O=c1cc(-c2ccc(O)cc2)oc2cc(O)ccc12 [7,4′-dihydroxyflavone] | 0% | 0% | 0% | 0% | ≦1% | – | – | –
O=c1c(O)c(-c2cc(O)c(O)c(O)c2)oc2cc(O)cc(O)c12 [Myricetin] | 0% | 0% | 0% | 0% | 0% | – | – | –
COc1ccc(C2COc3cc(O)ccc3C2)c(O)c1 (centres unmarked) [Vestitol] | 0% | 66.2% | 3.4% | ≦1% | ≦1% | – | – | low efficiency
O=C1c2ccc(O)cc2OCC1c1ccc(O)cc1 (centres unmarked) [Dihydrodaidzein] | 49.4% | 100% | 84.1% | 7.9% | 70.1% | – | 4′-methoxy, 7-methoxy, and 4′,7-dimethoxy products | –
